Source: PMC4822253, “Inhibition of BMP and of TGFβ receptors downregulates expression of XIAP and TAK1 leading to lung cancer cell death” (Molecular Cancer, 2016)
pIC50: −log10 of the molar value.

What was measured:
BMPRII = target: T1, BMPRII (Homo sapiens, UniProt Q13873); test: In vitro kinase IC50; assay type: biochemical; conditions: kinase activity; ATP 10 Micromolar; 10-point, duplicate
T1 construct: purchased Reaction Biology Corporation (Malvern, PA)
T1 sequence (Q13873 27-1038): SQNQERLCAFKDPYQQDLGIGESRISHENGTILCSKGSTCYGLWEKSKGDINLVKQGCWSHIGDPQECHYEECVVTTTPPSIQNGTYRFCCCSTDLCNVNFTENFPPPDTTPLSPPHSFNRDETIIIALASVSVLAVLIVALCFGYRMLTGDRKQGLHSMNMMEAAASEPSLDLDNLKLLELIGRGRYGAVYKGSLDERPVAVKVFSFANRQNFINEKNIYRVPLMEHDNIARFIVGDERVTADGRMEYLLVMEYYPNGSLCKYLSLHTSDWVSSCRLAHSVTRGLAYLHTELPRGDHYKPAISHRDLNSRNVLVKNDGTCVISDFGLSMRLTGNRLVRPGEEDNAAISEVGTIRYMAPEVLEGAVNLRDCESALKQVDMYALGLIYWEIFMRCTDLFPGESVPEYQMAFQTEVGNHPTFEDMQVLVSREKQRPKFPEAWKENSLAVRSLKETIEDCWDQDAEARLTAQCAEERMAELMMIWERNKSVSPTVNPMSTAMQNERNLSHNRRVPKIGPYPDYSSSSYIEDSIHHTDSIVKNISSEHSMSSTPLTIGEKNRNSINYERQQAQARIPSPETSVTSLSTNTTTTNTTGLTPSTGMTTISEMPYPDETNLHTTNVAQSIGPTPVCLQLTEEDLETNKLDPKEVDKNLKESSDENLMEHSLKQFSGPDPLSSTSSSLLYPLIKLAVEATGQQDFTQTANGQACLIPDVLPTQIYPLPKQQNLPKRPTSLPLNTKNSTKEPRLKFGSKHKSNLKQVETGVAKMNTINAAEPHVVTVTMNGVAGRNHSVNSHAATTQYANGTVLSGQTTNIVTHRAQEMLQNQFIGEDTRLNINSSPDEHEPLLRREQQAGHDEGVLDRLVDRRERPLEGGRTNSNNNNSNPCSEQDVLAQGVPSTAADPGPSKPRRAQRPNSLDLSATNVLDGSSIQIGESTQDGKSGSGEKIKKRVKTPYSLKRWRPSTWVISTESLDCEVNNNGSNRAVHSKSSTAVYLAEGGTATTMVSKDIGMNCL
Text: (§1) The ATP concentration was 10 Micromolar.

TGFbetaR2 = target: T2, TGFbetaR2 (Homo sapiens, UniProt P37173); test: In vitro kinase IC50; assay type: biochemical; conditions: kinase activity; ATP 10 Micromolar; 10-point, duplicate
T2 construct: purchased Reaction Biology Corporation (Malvern, PA)
Text: as §1

[1] = Plasma protein binding by equilibrium dialysis; assay type: in vitro ADME; conditions: human plasma
[2] = Plasma protein binding by equilibrium dialysis; assay type: in vitro ADME; conditions: mouse plasma
Pharmacokinetics in mice = assay type: in vivo; conditions: BALB/c mice; 2 mg/kg tail vein injection and 10 mg/kg p.o. study
Protocol: Three mice at each time point were dosed with a 2 mg/kg tail vein injection and 10 mg/kg p.o. Blood samples were taken 0.08, 0.25, 0.5, 1, 2, 4, 8, 12, and 24 h (i.v.) and 0.25, 0.5, 1, 2, 4, 6, 8, 12, and 24 h (p.o.). Plasma half-life, clearance, and volume of distribution were then determined.

H1299 Id1-luc cells = test: Id1-promoter luciferase reporter assay; assay type: cell-based; conditions: 1.0 μM and 2.5 μM, 48 h
Protocol: H1299 cells were stably transfected with the Id1-promoter luciferase reporter. Treated cells were lysed with 1X luciferase lysis buffer (Promega). Samples were added to luciferase assay substrate (Promega) and luminsescence measured by the TD-20/20 Luminometer (Turner Designs/Turner BioSystems, Sunnyvale, CA). Control samples included luciferase assay substrate alone and luciferase assay substrate plus 1X reporter lysis buffer.

A549 cells = test: Cell death assay (ethidium bromide uptake); assay type: cell-based; conditions: after 3 days
Protocol: (§2) Cells were plated in 6 well plates with 10^6 cells per well. Three days following treatment with inhibitor(s) and/or transfection the adherent and floating cells were harvested and incubated with 0.1 mg/ml of ethidium bromide. Cells that die by necrosis or apoptosis lose membrane integrity and take up ethidium bromide. Immediately after staining approximately 100 cells were counted and the percentage of cells that took up ethidium bromide was determined.

H1299 cells = test: Cell death assay (ethidium bromide uptake); assay type: cell-based
Protocol: as §2

Alk2/ACVRR1 = target: T3, Alk2/ACVRR1 (Homo sapiens, UniProt Q04771); parameters: purchased Reaction Biology Corporation (Malvern, PA); conditions: reported; read-out: IC50 for the BMP type I receptor Alk2; cited from earlier work
T3 sequence (Q04771 21-509): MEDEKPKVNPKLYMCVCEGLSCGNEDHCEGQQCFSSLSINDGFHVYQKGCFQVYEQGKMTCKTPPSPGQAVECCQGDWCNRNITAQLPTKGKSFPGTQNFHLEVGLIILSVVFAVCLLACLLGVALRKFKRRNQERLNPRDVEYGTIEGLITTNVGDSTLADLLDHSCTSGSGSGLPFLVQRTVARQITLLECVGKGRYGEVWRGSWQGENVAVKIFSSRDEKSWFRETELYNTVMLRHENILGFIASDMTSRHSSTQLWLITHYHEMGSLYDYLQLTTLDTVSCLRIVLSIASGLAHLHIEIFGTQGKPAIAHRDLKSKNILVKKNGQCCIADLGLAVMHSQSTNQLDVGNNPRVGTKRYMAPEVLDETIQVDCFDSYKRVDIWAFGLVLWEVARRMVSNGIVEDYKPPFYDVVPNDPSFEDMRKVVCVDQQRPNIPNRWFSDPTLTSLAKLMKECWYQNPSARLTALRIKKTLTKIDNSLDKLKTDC

T2 sequence (P37173 23-567): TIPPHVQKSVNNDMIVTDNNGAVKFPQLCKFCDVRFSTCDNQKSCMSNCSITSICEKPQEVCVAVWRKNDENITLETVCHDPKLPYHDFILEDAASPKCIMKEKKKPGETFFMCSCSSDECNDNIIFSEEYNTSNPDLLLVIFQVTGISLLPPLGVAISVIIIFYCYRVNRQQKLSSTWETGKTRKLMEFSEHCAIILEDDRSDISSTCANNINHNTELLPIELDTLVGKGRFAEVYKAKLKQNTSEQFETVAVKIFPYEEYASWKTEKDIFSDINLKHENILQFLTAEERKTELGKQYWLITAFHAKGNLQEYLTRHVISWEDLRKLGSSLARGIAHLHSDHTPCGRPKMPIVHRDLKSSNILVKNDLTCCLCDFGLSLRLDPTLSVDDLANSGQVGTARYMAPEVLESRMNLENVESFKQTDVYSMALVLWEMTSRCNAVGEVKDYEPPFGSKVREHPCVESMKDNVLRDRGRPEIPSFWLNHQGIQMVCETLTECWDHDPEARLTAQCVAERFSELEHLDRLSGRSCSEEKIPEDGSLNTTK

## c1ccc2c(-c3cnn4cc(-c5ccc(OCCN6CCOCC6)cc5)cnc34)ccnc2c1 [DMH2]
BMPRII
  pIC50: 5.10
TGFbetaR2
  pIC50: 6.71
[1]
  percent binding plasma proteins: 98.6 % +/−0.7
[2]
  percent binding plasma proteins: 98.2 % +/−1.5
Pharmacokinetics in mice
  elimination half-life: 57 min
  systemic plasma clearance: 68.45 mL/min/kg
H1299 Id1-luc cells
  suppression of Id1 promoter activity in comparison to DMH1: significantly greater suppression
A549 cells
  cell death: significant cells death
H1299 cells; H1299 cells
  cell death compared to DMH1 and LDN: significantly greater
H1299 cells; H1299 cells stably expressing mutant XIAP, 3 days
  cell death in cells expressing mutant XIAP: resistant to cell death
H1299 cells; H1299 cells, after 3 days
  cell death: significant cells death
Alk2/ACVRR1
  pIC50: 7.37
